Reference: US9879243B2, “Culture medium for cell growth and transfection” (LIFE TECHNOLOGIES CORPORATION, priority 2001, dated 2018)

Columns and labels:
Assay type in all cases: cell-based, human
293 cells [1] = experiment: Growth and adaptation of 293 cells to test media before transfection; conditions: for support of growth at the ZnSO4 concentrations tested: Example 7, ethyl maltol 50 μM, 2-hydroxypyridine 25 μM, DPTA.FeSO4 50 μM, ZnSO4 0.5×-5×
Experimental: When cultured in suspension, cells were split to 3×10^5 viable cells per ml at each passage. On the week of transfection cells were seeded at 3×10^5 viable cells per ml. After ˜48 hrs of growth (day 2) cells were vortexed for 30 seconds and counted and appropriate volumes used for transfection as described in procedures below.
293 cells were grown in monolayer culture in base medium supplemented with the indicated replacement compounds at the concentrations specified in Table 9.

293 cells [2] = experiment: Effect of replacement compounds on the growth of 293 cells in 293 SFM without transferrin, three passages; conditions: third passage, control 5 μg/mL human holo-transferrin
293 cells [3] = experiment: X-gal in situ staining, % transfection efficiency, 293 cells in 24-well plates; conditions: Example 7
Experimental: The third well of each treatment was used for in situ staining for β-galactosidase activity (i.e., ˜1×10^6 cells).
The transfection efficiency of cells grown in the presence of ZnSO4+ chelating agent as a replacement for insulin was tested at various concentrations of chelator and ZnSO4 and the results are shown in Table 10. Cells were prepared in monolayer culture in base medium containing the indicated supplements and transfected and assayed as described above.
293 cells were grown in monolayer culture in base media supplemented with the indicated chelator and metal salt at the indicated concentrations. The concentration of the chelator is given in μmoles/l and the concentration of the metal salt is given in μgrams/ml. […] The concentration of the cells in the media was 1×10^6 cell/ml, the concentration of DNA used was 1 μg DNA/10^6 cells, the concentration of LIPOFECTAMINE 2000 used was 8 μl/10^6 cells.
For cells transfected in 24-well plates, cells densities used were 1×10^6 viable cells per well.

[4] = 25 μM, iron equimolar where combined

Row | Compound | support of growth (293 cells [1]; Example 6, 100 μM) | support of growth at the ZnSO4 concentrations tested (293 cells [1]) | mean percentage of control growth (293 cells [2]; [4]) | mean percentage of control growth (293 cells [2]; 50 μM) | mean percentage of control growth (293 cells [2]; 100 μM) | X-gal staining transfection efficiency (293 cells [3]; media with 1× ZnSO4) [%] | X-gal staining transfection efficiency (293 cells [3]; media with insulin) | growth in the presence of ZnSO4 (293 cells [1]; Example 6, in combination with ZnSO4 instead of insulin)
1 | CCc1occc(=O)c1O [2-Ethyl-3-Hydroxy-4-Pyrone] | did not support growth | supported growth at all concentrations of ZnSO4 tested | 59 percentage of control growth | 120 percentage of control growth | 126 percentage of control growth | ~40 | 50-60% | –
2 | Diethylenetriamine Penta-Acetic Acid•Ferrous Sulfate | – | supported growth at concentrations of 1×, 2× and 5× ZnSO4, but not at 0.5× | 77 percentage of control growth | 107 percentage of control growth | 85 percentage of control growth | – | – | acceptable
